# Assay results from patent US8691799B2, “Materials and methods for treatment of cancer and identification of anti-cancer compounds” (priority 2001, dated 2014).
# pIC50: −log10 of the molar value. “Also recorded” adds a separate entry of the source.
# What was measured:
# v-Src/NIH 3T3 tumors = test: Antitumor activity, v-Src-transformed NIH 3T3 tumors in nude mice; assay type: in vivo; conditions: for inhibition of growth of v-src transformed NIH 3T3 tumors (in words): 1 mg/Kg/day intraperitoneally
# Description: Antitumor Activity in the Nude Mouse Tumor Xenograft Model. Nude mice and C57 BL-6 black mice (National Cancer Institute, Bethesda, Md.) were maintained in accordance with the Institutional Animal Care and Use Committee (IACUC) procedures and guidelines. v-Src- and oncogenic H-Ras-transformed NIH 3T3, A549, MDA-MB-468 and Calu-1 cells were harvested, resuspended in PBS and injected s.c. into the right and left flank (10×10^6 cells per flank) of 8 week old female nude mice as reported previously (Sun, J. et al. Cancer Res., 1999, 59:4919-4926). Similarly, murine B16-F10 Melanoma cells were injected s.c. into the right and left flank (10^6 cells per flank) of C57 black mice. […] […] The tumor volumes were determined by measuring the length (l) and the width (w) and calculating the volume (V=1w^2/2) as described previously (Sun, J. et al. Cancer Res., 1999, 59:4919-4926). Statistical significance between control and treated animals were evaluated by using Student's t-test. For the mouse survival experiments, C57 BL-6 black mice were implanted s.c. with B16-F10 cells (10^5 to 10^6 cells per flank). […] Percent surviving mice was determined by monitoring the death of mice until all mice died. Two experiments of 12 animals each (6 control and 6 treated with JSI-124) were carried out. For statistical analysis: for each of the two experiments, mice receiving JSI-124 were compared to those receiving vehicle control with respect to survival using the permutation log rank test as implemented in the statistical software package, ProcStatXact (p-values are two sided and exact).
# phosphotyrosine JAK2 = test: Western blotting for phosphotyrosine JAK2; assay type: cell-based, human; conditions: A-549 cells; for inhibition of phospho JAK2 levels (in words): 0-10 μM; for pIC50: Western blotting, read-out: IC50 for phospho-JAK2
# Description: (§1) Western Blotting. Treated cell samples were lysed in 30 mM Hepes, pH 7.5, 10 mM NaCl, 5 mM MgCl2, 25 mM NaF, 1 mM EGTA, 1% Triton-X-100, 10% glycerol, 2 mM sodium orthovanadate, 10 μg/ml aprotinin, 10 μg/ml soybean trypsin inhibitor, 25 μg/ml leupeptin, 2 mM PMSF, and 6.4 mg/ml p-nitrophenylphosphate. Phospho-STAT3, phospho-AKT, phospho-MEK, and phospho-p42/p44 MAPK antibodies were obtained from Cell Signaling Technologies, Cambridge, Mass. Antibodies to STAT3, JAK2, and phospho-INK were purchased from Santa Cruz Biotechnology, Santa Cruz, Calif. Phospho-JAK2 antibody came from Upstate Biotechnology, Lake Placid, N.Y. Membranes were blocked in either 5% milk in PBS, pH 7.4, containing 0.1% Tween-20 (PBS-T) or 1% BSA in TBS, pH 7.5, containing 0.1% Tween-20 (TBS-T). Phospho-specific antibodies (excepting P-MAPK and P-JNK) were incubated in 1% BSA in TBS-T while all other antibodies were diluted in 5% milk in PBS-T for either 2 hr at room temperature or overnight at 4° C. HRP-conjugated secondary antibodies (Jackson ImmunoResearch) were diluted in 5% milk in either PBS-T or TBS-T at 1:1000 dilution for one hour at room temperature. Western blots were visualized using enhanced chemiluminescence as described previously (Blaskovich, M. A. et al. Nat. Biotechnol., 2000, 18:1065-1070).
# phosphotyrosine STAT3 = test: Western blotting for phosphotyrosine STAT3 in cancer cell lines; assay type: cell-based, human; conditions: A-549 cells; for inhibition of phospho STAT3 levels (in words): 0-10 μM; for pIC50: Western blotting, read-out: IC50 for phospho-STAT3
# Description: as §1
# Immunoprecipitation of STAT3. A549 cells were treated for 4 hr with vehicle or JSI-124, then lysed in 150 mM Hepes, pH 7.5, 150 mM NaCl, 1 mM EDTA, 0.5% Nonidet P-40 (NP-40), 10% glycerol, 5 mM NaF, 1 mM DTT, 1 mM PMSF, 2 mM sodium orthovanadate, and 5 μg/ml leupeptin. Sample lysates were collected and cleared, then 500 μg of lysate was immunoprecipitated with 50 ng STAT3 antibody overnight at 4° C. then rocked with 25 μl Protein A/G PLUS agarose (Santa Cruz Biotechnology) for 1 hr at 4° C. Samples were washed four times with lysis buffer then boiled in 2×SDS-PAGE sample buffer and run on 10% SDS-PAGE gel. Protein was transferred to nitrocellulose and then blotted as above for both phospho-specific STAT3 and STAT3.
Compound,inhibition of growth of v-src transformed NIH 3T3 tumors (in words) (v-Src/NIH 3T3 tumors),inhibition of phospho JAK2 levels (in words) (phosphotyrosine JAK2),pIC50 (phosphotyrosine JAK2),inhibition of phospho STAT3 levels (in words) (phosphotyrosine STAT3),pIC50 (phosphotyrosine STAT3),other results
cucurbitacin Q,inhibit tumor growth; also recorded: as potent as curcubatacin I at inhibiting tumor growth,not phospho JAK2 levels,< 5.00,inhibits phospho STAT3,5.70,inhibition of growth of v-src transformed NIH 3T3 tumors (in words) (v-Src/NIH 3T3 tumors; listed as Cucurbitacin Q): as potent as cucurbatacin I at inhibiting tumor growth; gain in activity against STAT3 activation versus cucurbitacin B (phosphotyrosine STAT3): 2 fold
CC(C)(O)CCC(=O)[C@](C)(O)[C@H]1[C@H](O)C[C@@]2(C)[C@@H]3CC=C4[C@@H](C[C@H](O)C(=O)C4(C)C)[C@]3(C)C(=O)C[C@]12C [tetrahydro-cucurbitacin I],inhibit tumor growth,–,–,–,–,change of activity against phospho JAK2 versus cucurbitacin I (phosphotyrosine JAK2): reduction of activity against phospho-STAT3 and phospho JAK2; change of activity against phospho-STAT3 versus cucurbitacin I (phosphotyrosine STAT3): reduction of activity against phospho-STAT3 and phospho JAK2
CC(C)(O)/C=C/C(=O)[C@](C)(O)[C@H]1[C@H](O)C[C@@]2(C)[C@@H]3CC=C4[C@@H](C[C@H](O)C(=O)C4(C)C)[C@]3(C)C(=O)C[C@]12C [cucurbitacin D],–,–,–,–,–,change of activity against phospho JAK2 versus cucurbitacin B (phosphotyrosine JAK2): no effects; reduction of activity against phospho STAT3 versus cucurbitacin B (phosphotyrosine STAT3): 2 fold
CC(=O)OC(C)(C)/C=C/C(=O)[C@](C)(O)[C@H]1[C@H](O)C[C@@]2(C)[C@@H]3CC=C4[C@@H](C[C@H](O)C(=O)C4(C)C)[C@]3(CO)C(=O)C[C@]12C [cucurbitacin A],did not significantly inhibit tumor growth,inhibits only phospho JAK2,6.00,not phospho STAT3 levels; also recorded: no phospho STAT3 levels,< 5.00,inhibition of growth of v-src transformed NIH 3T3 tumors (in words) (v-Src/NIH 3T3 tumors; listed as curbitacin A): did not; inhibition of growth of v-Src/NIH 3T3 tumors (v-Src/NIH 3T3 tumors; 1 mg/kg/day i.p.): 16%
CC(=O)OC(C)(C)/C=C/C(=O)[C@](C)(O)[C@H]1[C@H](O)C[C@@]2(C)[C@@H]3CC=C4[C@@H](C=C(O)C(=O)C4(C)C)[C@]3(C)C(=O)C[C@]12C [cucurbitacin E],inhibit tumor growth,–,6.70,–,6.10,loss of activity against phospho-STAT3 versus cucurbitacin I (phosphotyrosine STAT3): four-fold
